In patent US8410288B2, “Polymorphs of Saxagliptin hydrochloride and processes for preparing them” (Teva Pharmaceutical Industries Ltd., priority 2010, dated 2013):
Where a name gives a salt, the structure may show the parent alone.

What was measured:
Type in all cases: physicochemical
[1] = Particle morphology (SEM), filterability and powder flowability; details: small plate to rod-shaped particles
Text: Equipment: Jeol JSM-5800 scanning microscope, Sputtered with gold by Edwards S150 sputter coater

[2] = Tapped density measurement; details: 450 mg sample; for tapped density: 10 ml graduated cylinder, tapped 200 times; for volume of sample after tapping: 10 ml measuring flask, tapped 200 times with equal force
Protocol: Samples were tapped the same number of times (200 times) with equal force. Volume of each sample was recorded: (1.4 ml for Form K; 1.6 ml for H2-1).

[3] = Solubility measurement (time to clear solution in distilled water); details: compared to other solid state forms of Saxagliptin hydrochloride
Protocol: Equal mass of samples was suspended in equal volume of distilled water. Suspensions were slightly mixed, time was recorded at the moment of clear solution appearance.

## N#C[C@@H]1C[C@@H]2C[C@@H]2N1C(=O)[C@@H](N)C12CC3CC(CC(O)(C3)C1)C2 [form D, Saxagliptin hydrochloride]
[1]
  filterability and powder flowability: good filterability and powder flowability properties

## N#C[C@@H]1C[C@@H]2C[C@@H]2N1C(=O)[C@@H](N)C12CC3CC(CC(O)(C3)C1)C2 [form H2-1, Saxagliptin hydrochloride dihydrate, reference compound]
[2]; hydrochloride dihydrate
  tapped density: about 0.28 g/ml
  volume of sample after tapping: 1.6 mL

## N#C[C@@H]1C[C@@H]2C[C@@H]2N1C(=O)[C@@H](N)C12CC3CC(CC(O)(C3)C1)C2 [form K, Saxagliptin hydrochloride]
[2]; hydrochloride
  tapped density: about 0.32 g/ml
  volume of sample after tapping: 1.4 mL

## N#C[C@@H]1C[C@@H]2C[C@@H]2N1C(=O)[C@@H](N)C12CC3CC(CC(O)(C3)C1)C2 [form Z, Saxagliptin hydrochloride]
[3]
  dissolution rate: high dissolution rate
